According to patent US8193430B2, “Methods for separating carbon nanotubes” (The University of Connecticut, priority 2008, dated 2012):
In brackets after ≈: the same amount, converted by molar mass. Like-named read-outs stand apart in the source and are kept apart here.

Legend:
[1] = Solubility of lumiflavin and FC12 in various solvents; type: physicochemical; details: organic solvent or mixture
Text: The facile nanotube individualization and high QYs afforded by FC12 in certain solvents, begs the question why these solvents behave so differently. The answer to this question is believed to originate from the relative solubility differences of the two FC12 sub-moieties (i.e., isoalloxazine ring and dodecyl side chain). For this, we procured 10-methyl isoalloxazine (lumiflavin), the closest analogue to the isoalloxazine ring, and investigated its solubility characteristics versus that of FC12. Table 1 tabulates the solubilities of lumiflavin and FC12 as a function of dielectric constant (∈) of various solvents. […] As solvent polarity increases (i.e., ethylacetate, THF and acetone), their solubilities increase accordingly. […] Such behavior is believed to originate from the moderate-strong H-bonding ability of pyridine and DMF, capable of dissociating the H-bonded FC12 ribbon responsible for nanotube-dispersion. […] Two distinct regimes can be discerned, with high and low QYs for low and medium polarity solvents, respectively. For both regimes, the increase in FC12 solubility was followed by a decrease in QY. Since H-bonding is responsible for both helix stability and FC12/lumiflavine dissolution, increasing solvent polarity is expected to increase the helix dissociation constant and render FC12-wrapped nanotubes more prone to bundling and less capable to desorb 1,4-endoperoxide defects. On the basis of the observed aggregation tendencies, the low QYs in regime B appear to be dominated by nanotube bundling. In low-polarity solvents, the tight helical wrapping prevents nanotube bundling, which results in higher QY. Moreover, the proportionality of the helix dissociation constant to the FC12 solubility, explains the linear dependence of 1,4-endoperoxide defect removal along the one dimensional SWNT structure.

[2] = Solubility of riboflavin in neutral aqueous media (SWNT dispersion); type: physicochemical
Method: A representative procedure for dispersing SWNTs with flavin mononucleotide (FMN), FAD and riboflavin involves a 4 hours cup horn sonication of SWNTs in H2O or D2O. This is followed by 2 hours of centrifugation at 15 kg, where the upper 70 to 80% of the supernatant was decanted for further investigation. As noted above, the FIG. 1 illustrates the chemical structure of riboflavin, FMN, and FAD used for such aqueous dispersion of SWNTs. While the basic flavin moiety is hydrophobic, these flavin derivatives have water-miscible tail groups. Such amphiphilic structures together with the aforementioned strong π-π interactions with both metallic and semiconducting SWNTs, can explain the effective nanotube dispersion in aqueous media.
FIG. 6 illustrates the UV-Vis-NIR spectra of HiPco dispersions with FMN, FAD, and riboflavin. The first (E11^S) and second (E22^S) optical transitions of semiconducting SWNTs can be witnessed in […] range, respectively. Those E11^S and E22^S features are clearly apparent for the FMN and FAD spectra, which are in good accordance with that of SDBS-dispersed HiPco SWNTs. […] Upon sonication of riboflavin-SWNT in basic media (pH 11), the resulting dispersions recover the aforementioned E11^S and E22^S features (data not shown), which indicates the successful dispersion of SWNTs. […]

## Cc1cc2nc3c(=O)[nH]c(=O)nc-3n(C)c2cc1C [Lumiflavin]
[1]; DMF (N,N-dimethyl formamide), in DMF, read-out: Lumiflavin solubility
  solubility: 0.317 mg/mL (≈ 1240 µM)
[1]; THF (tetrahydrofuran), in THF, read-out: Lumiflavin solubility
  solubility: 0.0462 mg/mL (≈ 180 µM)
[1]; in acetone, read-out: Lumiflavin solubility
  solubility: 0.0539 mg/mL (≈ 210 µM)
[1]; in benzene, read-out: Lumiflavin solubility
  solubility: 0.0044 mg/mL (≈ 17.2 µM)
[1]; in ethylacetate, read-out: Lumiflavin solubility
  solubility: 0.0141 mg/mL (≈ 55 µM)
[1]; in o-xylene, read-out: Lumiflavin solubility
  solubility: 0.0059 mg/mL (≈ 23 µM)
[1]; in pyridine, read-out: Lumiflavin solubility
  solubility: 0.529 mg/mL (≈ 2060 µM)
[1]; in toluene, read-out: Lumiflavin solubility
  solubility: 0.0043 mg/mL (≈ 16.8 µM)

## Cc1cc2nc3c(=O)[nH]c(=O)nc-3n(C[C@H](O)[C@H](O)[C@H](O)CO)c2cc1C [riboflavin]
[2]
  solubility in neutral aqueous media: insolubility

## CCCCCCCCCCCCn1c2nc(=O)[nH]c(=O)c-2nc2cc(C)c(C)cc21 [FC12, 10-dodecyl-7,8-dimethyl-10H-benzo[g]pteridine-2,4-dione]
[1]; DMF (N,N-dimethyl formamide), in DMF, read-out: FC12 solubility
  solubility: 22.9 mg/mL (≈ 55700 µM)
[1]; THF (tetrahydrofuran), in THF, read-out: FC12 solubility
  solubility: 11 mg/mL (≈ 26900 µM)
[1]; in acetone, read-out: FC12 solubility
  solubility: 1.81 mg/mL (≈ 4410 µM)
[1]; in benzene, read-out: FC12 solubility
  solubility: 0.31 mg/mL (≈ 755 µM)
[1]; in ethylacetate, read-out: FC12 solubility
  solubility: 0.51 mg/mL (≈ 1240 µM)
[1]; in o-xylene, read-out: FC12 solubility
  solubility: 0.25 mg/mL (≈ 609 µM)
[1]; in pyridine, read-out: FC12 solubility
  solubility: 70.4 mg/mL (≈ 171000 µM)
[1]; in toluene, read-out: FC12 solubility
  solubility: 0.23 mg/mL (≈ 560 µM)
